In article PMC12373846, “Hemoglobin as a pseudoperoxidase and drug target for oxidative stress-related diseases” (Signal Transduction and Targeted Therapy, 2025):
Where two headings read alike, the source gives them in different places.

Columns and labels:
[1] = ROS-Glo H2O2 assay without HRP or Hb; format: biochemical; conditions: ROS-Glo assay lacking HRP/Hb
Method: (§1) Hb (Sigma‒Aldrich, H7379), H2O2 (Sigma‒Aldrich, H1009), and Amplex Red reagents (Invitrogen, A12222) were obtained for the study. A 4 μM H2O2 solution was prepared in 50 mM sodium phosphate buffer (pH 7.2). Then, 49 μl of this mixture was mixed with 1 μl of the test compound in DMSO or distilled water. The mixture was combined with an assay mixture of Amplex Red reagent (20 mM stock to 0.1 mM) and HRP (200 U/ml stock to 0.2 U/ml) and added to the wells at 50 μl/well. After a 60-min incubation at 37 °C, resorufin production was quantified via a microplate fluorescence reader (SpectraMax iD5, Molecular Devices) at ex/em = 535/580 nm. The H2O2-decomposing activity was estimated via the following equation: (sample fluorescence-blank fluorescence)/(control absorbance-blank fluorescence) × 100. For the ROS-Glo assay, the H2O2 substrate solution and ROS-Glo detection solution were prepared according to the manufacturer’s instructions. 10 μM H2O2 and drugs were prepared as in the Amplex Red assay, with HRP, Hb, CAT, or GPx added as needed. The mixture was added to the wells at 100 μl/well and incubated for 60 min at 37 °C. H2O2 substrate solution was added, and the mixture was incubated at room temperature for 30 min. After the H2O2 substrate solution was added and incubated at room temperature for 30 min, the ROS-Glo detection solution was added, and the mixture was incubated for 15 min. Luminescence was measured via iD5 microplate readers. The H2O2-decomposing activity was estimated via the following equation: (sample luminescence-blank luminescence)/(control luminescence-blank luminescence) × 100. The U/ml was calculated on the basis of the amount of H2O2 reduced by Hb during the reaction, using μg/ml and U/mg.

[2] = target: T1, Hb (Homo sapiens, UniProt P68871); experiment: ROS-Glo H2O2 assay with Hb; format: biochemical; conditions: for remaining H2O2 normalized to no Hb: Fig. 2d; for fold change in H2O2 decomposition (Hb pseudoperoxidase activity per 0.5 h): 30-min window, Fig. 2b
T1 construct: purchased Sigma-Aldrich H7379
Method: as §1, with “The H2O2-decomposing activity was estimated via the following equation: (sample fluorescence-blank fluorescence)/(control absorbance-blank fluorescence) × 100.” left out, “The H2O2-decomposing activity was estimated via the following equation: (sample luminescence-blank luminescence)/(control luminescence-blank luminescence) × 100.” left out
To evaluate the extent of peroxidase function facilitation by HTPEB (1 μM) and KDS12025 (1 μM) in HRP (0.2 U/ml) and Hb (10 μg/ml), we used the ROS-Glo assay over 30 and 60 min. The fold change was calculated by dividing the delta values during the 30-min reaction for the vehicle over drug conditions.
To assess enzyme activity, the amount of H2O2 consumed over a specific time was quantified alongside a standard curve. For the peroxidase function of Hb, Hb was administered at doses ranging from 0.01 to 112 U/ml and preincubated with H2O2 and either DMSO, HTPEB (1 μM), or KDS12025 (1 μM) at 37 °C for 30 min. The remaining H2O2 was measured via the ROS-Glo assay and normalized against conditions without Hb. The dose‒response curve, EC50, and EC20 for H2O2 decomposition were calculated and determined by fitting the data with GraphPad Prism software. The fitting method had no special handling of outliers, and least squares regression with confidence intervals of the parameters was 95%.

[3] = Tables S2, S3, read-out: HB-EC50
[4] = in the presence of Hb, Fig. 1h, read-out: EC50 with Hb (H2O2 decomposition)

T1 sequence (P68871 2-147 limits assumed): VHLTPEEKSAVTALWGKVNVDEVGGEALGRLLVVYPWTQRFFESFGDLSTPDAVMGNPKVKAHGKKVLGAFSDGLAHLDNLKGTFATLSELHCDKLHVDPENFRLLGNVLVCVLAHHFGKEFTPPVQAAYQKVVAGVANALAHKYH
T1 sequence (P69905 2-142 partner limits assumed): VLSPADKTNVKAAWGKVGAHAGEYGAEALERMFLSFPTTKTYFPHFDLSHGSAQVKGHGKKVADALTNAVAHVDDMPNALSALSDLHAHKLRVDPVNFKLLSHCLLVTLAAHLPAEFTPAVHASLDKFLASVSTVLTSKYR

Compound | H2O2-decomposing activity without HRP or Hb [1] | remaining H2O2 normalized to no Hb ([2]; Hb 0.01 U/ml) | remaining H2O2 normalized to no Hb ([2]; Hb 0.1 U/ml) | remaining H2O2 normalized to no Hb ([2]; Hb 1 U/ml) | fold change in H2O2 decomposition (Hb pseudoperoxidase activity per 0.5 h) [2] | EC50 [2, 3] | EC50 [2, 4] | facilitation of H2O2 decomposition by Hb ([2]; with HTPEB, Fig. 1f) | enhancement of Hb pseudoperoxidase activity [2] | EC50 ([2]; Fig. S1f, read-out: EC50, H2O2 decomposition with human hemoglobin (hHb)) | H2O2 decomposition at extremely low Hb ([2]; Hb 0.04 U/ml, 0.03 μg/ml) | potency relative to HTPEB ([2]; ratio of EC50 with Hb) | fold decrease of Hb EC20 for H2O2 decomposition ([2]; vs Hb alone, Fig. 2e) | fold decrease of Hb EC50 for H2O2 decomposition ([2]; vs Hb alone, Fig. 2e)
O=C(O)c1cc(NCCc2ccc(C(F)(F)F)cc2)ccc1O [HTPEB, 2-hydroxy-5-[2-(4-trifluoromethyl-phenyl)-ethylamino]-benzoic acid, reference compound] | no activity | 84.92±3.034 | 81.24±5.607 | 70.82±3.83 | 2.529±0.6645 fold | 155 nM | 150 nM | 2 fold |  |  |  |  |  | 
CN(C)c1ccc(NCCc2ccc(C(F)(F)F)cc2)cc1.Cl [KDS12008, N^1,N^1-dimethyl-N^4-(4-(trifluoromethyl)phenethyl)benzene-1,4-diamine hydrochloride salt] |  |  |  |  |  | 67 nM |  |  |  |  |  |  |  | 
CNc1ccc(NCCc2ccc(C(F)(F)F)cc2)cc1.Cl [KDS12017, N^1-methyl-N^4-(4-(trifluoromethyl)phenethyl)benzene-1,4-diamine hydrochloride salt] | neither KDS12017 nor KDS12025 degrades H2O2 without Hb |  |  |  |  | 86.2 nM | 90 nM |  |  |  |  |  |  | 
CNc1ccc(NCCc2ccccc2OC)cc1.Cl [KDS12025, N^1-(2-methoxyphenethyl)-N^4-methylbenzene-1,4-diamine hydrochloride salt] | neither KDS12017 nor KDS12025 degrades H2O2 without Hb | 82.57±2.025 | 75.36±1.113 | 62.38±2.923 | 5.676±0.6374 fold | 44.9 nM | 40 nM |  | 100 fold | 33 nM | up to 20% | ~ 4 fold | 98 fold | 4.7 fold
